Measured values as given in ChEMBL document CHEMBL1201862, “PubChem BioAssay data set” (2004).
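How tested: cells in 96-well plates exposed to compound for 48 hours at five concentrations. GI50 marks 50% less growth.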 Calls of active or inactive are those of the source. Cut-off read from the data, not from the text of the source: active = GI50 up to about 1.1 µM and inactive = higher.

Assays:
Assay in all cases: growth of human tumour cells (NCI), 48 h
786-0 = test system: 786-0
A498 = test system: A498
ACHN = test system: ACHN
CCRF-CEM = test system: CCRF-CEM
HCC 2998 = test system: HCC 2998
HCT-15 = test system: HCT-15
HL-60 = test system: HL-60
HT-29 = test system: HT-29
K562 = test system: K562
LOX IMVI = test system: LOX IMVI
Malme-3M = test system: Malme-3M
NCI-H226 = test system: NCI-H226
NCI-H522 = test system: NCI-H522
OVCAR-5 = test system: OVCAR-5
RXF 393 = test system: RXF 393
SK-MEL-28 = test system: SK-MEL-28
SK-MEL-5 = test system: SK-MEL-5
SNB-75 = test system: SNB-75
CAKI-1 = test system: CAKI-1
SF-539 = test system: SF-539

N#CCCN(CCN(CCC#N)C(=O)Nc1ccccc1)C(=O)Nc1ccccc1
GI50 (786-0): 75.5 µM (inactive)
GI50 (A498): > 100 µM (inactive)
GI50 (ACHN): > 100 µM (inactive)
GI50 (CCRF-CEM): > 100 µM (inactive)
GI50 (HCC 2998): > 100 µM (inactive)
GI50 (HCT-15): > 100 µM
GI50 (HL-60): > 100 µM (inactive)
GI50 (HT-29): > 100 µM (inactive)
GI50 (K562): > 100 µM (inactive)
GI50 (LOX IMVI): > 100 µM (inactive)
GI50 (Malme-3M): > 100 µM (inactive)
GI50 (NCI-H226): > 100 µM (inactive)
GI50 (NCI-H522): 32.3 µM (inactive)
GI50 (OVCAR-5): > 100 µM (inactive)
GI50 (RXF 393): 24.4 µM (inactive)
GI50 (SK-MEL-28): > 100 µM (inactive)
GI50 (SK-MEL-5): > 100 µM (inactive)
GI50 (SNB-75): 19.5 µM (inactive)

FC(F)(F)c1ccc(/N=N/N2CCCC2)cc1
GI50 (786-0): > 100 µM (inactive)
GI50 (A498): > 100 µM (inactive)
GI50 (ACHN): > 100 µM (inactive)
GI50 (CAKI-1): > 100 µM (inactive)
GI50 (CCRF-CEM): > 100 µM (inactive)
GI50 (HCC 2998): > 100 µM (inactive)
GI50 (HCT-15): > 100 µM
GI50 (HL-60): > 100 µM (inactive)
GI50 (HT-29): > 100 µM (inactive)
GI50 (K562): > 100 µM (inactive)
GI50 (LOX IMVI): > 100 µM (inactive)
GI50 (Malme-3M): > 100 µM (inactive)
GI50 (NCI-H226): > 100 µM (inactive)
GI50 (NCI-H522): > 100 µM (inactive)
GI50 (OVCAR-5): > 100 µM (inactive)
GI50 (RXF 393): > 100 µM (inactive)
GI50 (SF-539): > 100 µM (inactive)
GI50 (SK-MEL-28): > 100 µM (inactive)
GI50 (SK-MEL-5): 42.6 µM (inactive)

CCCCCCCCCCCCNC(=S)OC
GI50 (786-0): 15.8 µM (inactive)
GI50 (A498): 16.9 µM (inactive)
GI50 (ACHN): 17.9 µM (inactive)
GI50 (CAKI-1): 14.8 µM (inactive)
GI50 (CCRF-CEM): 10.5 µM (inactive)
GI50 (HCC 2998): 18.2 µM (inactive)
GI50 (HCT-15): 14.6 µM
GI50 (HL-60): 10.5 µM (inactive)
GI50 (HT-29): 16.7 µM (inactive)
GI50 (K562): 17.5 µM (inactive)
GI50 (LOX IMVI): 15.2 µM (inactive)
GI50 (Malme-3M): 15.5 µM (inactive)
GI50 (NCI-H522): 13.2 µM (inactive)
GI50 (OVCAR-5): 16.3 µM (inactive)
GI50 (RXF 393): 12.8 µM (inactive)
GI50 (SF-539): 17 µM (inactive)
GI50 (SK-MEL-28): 16.9 µM (inactive)
GI50 (SK-MEL-5): 17.3 µM (inactive)
GI50 (SNB-75): 16.8 µM (inactive)

Cc1c2c(cc3c1[nH]c1ccccc13)C(c1ccc(Cl)cc1)=NCC2
GI50 (A498): 0.124 µM (active)
GI50 (CCRF-CEM): 0.433 µM (active)
GI50 (HCC 2998): 0.991 µM (active)
GI50 (HCT-15): 0.416 µM
GI50 (HL-60): 0.288 µM (active)
GI50 (HT-29): 0.203 µM (active)
GI50 (K562): 0.328 µM (active)
GI50 (LOX IMVI): 0.424 µM (active)
GI50 (Malme-3M): 1.83 µM (inactive)
GI50 (NCI-H226): 1.3 µM (inactive)
GI50 (NCI-H522): 0.288 µM (active)
GI50 (OVCAR-5): 7.78 µM (inactive)
GI50 (RXF 393): 0.465 µM (active)
GI50 (SF-539): 0.667 µM (active)
GI50 (SK-MEL-28): 1.45 µM (inactive)
GI50 (SK-MEL-5): 0.343 µM (active)
GI50 (SNB-75): 0.217 µM (active)

Nc1ccc2cc(S(=O)(=O)O)cc(O)c2c1/N=N/c1ccc(NC(=O)Nc2ccc(/N=N/c3c(N)ccc4cc(S(=O)(=O)O)cc(O)c34)c(S(=O)(=O)O)c2)cc1S(=O)(=O)O
GI50 (A498): > 100 µM (inactive)
GI50 (CCRF-CEM): > 69.3 µM (inactive)
GI50 (HCC 2998): > 100 µM (inactive)
GI50 (HCT-15): > 91.2 µM
GI50 (HL-60): 44.4 µM (inactive)
GI50 (HT-29): > 100 µM (inactive)
GI50 (K562): > 100 µM (inactive)
GI50 (LOX IMVI): > 100 µM (inactive)
GI50 (Malme-3M): > 100 µM (inactive)
GI50 (NCI-H226): > 100 µM (inactive)
GI50 (NCI-H522): > 100 µM (inactive)
GI50 (OVCAR-5): > 79.6 µM (inactive)
GI50 (RXF 393): > 100 µM (inactive)
GI50 (SF-539): > 100 µM (inactive)
GI50 (SK-MEL-28): > 100 µM (inactive)
GI50 (SK-MEL-5): > 100 µM (inactive)
GI50 (SNB-75): 95.9 µM (inactive)

CC(C)CNc1nc2ncnc(N)c2[nH]1
GI50 (786-0): > 100 µM (inactive)
GI50 (A498): > 100 µM (inactive)
GI50 (ACHN): > 100 µM (inactive)
GI50 (CAKI-1): > 100 µM (inactive)
GI50 (CCRF-CEM): > 100 µM (inactive)
GI50 (HCC 2998): > 100 µM (inactive)
GI50 (HCT-15): > 100 µM
GI50 (HL-60): < 0.01 µM (active)
GI50 (HT-29): > 100 µM (inactive)
GI50 (K562): > 100 µM (inactive)
GI50 (LOX IMVI): > 100 µM (inactive)
GI50 (Malme-3M): > 100 µM (inactive)
GI50 (NCI-H226): > 100 µM (inactive)
GI50 (NCI-H522): > 100 µM (inactive)
GI50 (OVCAR-5): > 100 µM (inactive)
GI50 (RXF 393): > 100 µM (inactive)
GI50 (SF-539): > 100 µM (inactive)
GI50 (SK-MEL-28): > 100 µM (inactive)
GI50 (SK-MEL-5): > 100 µM (inactive)

CC1(CO)OC(n2cnc3c(N)ncnc32)C(O)C1O (centres undefined)
GI50 (786-0): > 100 µM (inactive)
GI50 (A498): > 100 µM (inactive)
GI50 (ACHN): > 100 µM (inactive)
GI50 (CAKI-1): > 100 µM (inactive)
GI50 (CCRF-CEM): > 100 µM (inactive)
GI50 (HCC 2998): > 100 µM (inactive)
GI50 (HCT-15): > 100 µM
GI50 (HL-60): > 100 µM (inactive)
GI50 (HT-29): > 100 µM (inactive)
GI50 (K562): > 100 µM (inactive)
GI50 (LOX IMVI): > 100 µM (inactive)
GI50 (Malme-3M): > 100 µM (inactive)
GI50 (NCI-H522): > 100 µM (inactive)
GI50 (OVCAR-5): > 100 µM (inactive)
GI50 (RXF 393): > 100 µM (inactive)
GI50 (SF-539): > 100 µM (inactive)
GI50 (SK-MEL-28): > 100 µM (inactive)
GI50 (SK-MEL-5): > 100 µM (inactive)
GI50 (SNB-75): 87.3 µM (inactive)

Clc1ccc(CCn2ccc3ccccc32)c(Cl)c1
GI50 (786-0): > 100 µM (inactive)
GI50 (A498): > 100 µM (inactive)
GI50 (ACHN): > 100 µM (inactive)
GI50 (CAKI-1): > 100 µM (inactive)
GI50 (CCRF-CEM): > 100 µM (inactive)
GI50 (HCC 2998): > 100 µM (inactive)
GI50 (HCT-15): > 100 µM
GI50 (HL-60): > 100 µM (inactive)
GI50 (HT-29): > 100 µM (inactive)
GI50 (K562): > 100 µM (inactive)
GI50 (Malme-3M): > 100 µM (inactive)
GI50 (NCI-H226): > 100 µM (inactive)
GI50 (NCI-H522): > 100 µM (inactive)
GI50 (OVCAR-5): > 100 µM (inactive)
GI50 (RXF 393): > 100 µM (inactive)
GI50 (SF-539): > 100 µM (inactive)
GI50 (SK-MEL-5): > 100 µM (inactive)
GI50 (SNB-75): > 100 µM (inactive)

O=C1c2ccccc2C(=O)c2[nH]c(=O)c(/C=N/Nc3ccc([N+](=O)[O-])cc3)nc21
GI50 (786-0): 15.9 µM (inactive)
GI50 (A498): 4.67 µM (inactive)
GI50 (ACHN): 13.2 µM (inactive)
GI50 (CAKI-1): 17.3 µM (inactive)
GI50 (CCRF-CEM): > 35.5 µM (inactive)
GI50 (HCC 2998): 1.61 µM (inactive)
GI50 (HCT-15): 3.67 µM
GI50 (HL-60): 8.79 µM (inactive)
GI50 (HT-29): 2.59 µM (inactive)
GI50 (K562): > 43.6 µM (inactive)
GI50 (LOX IMVI): 3.56 µM (inactive)
GI50 (Malme-3M): 1.21 µM (inactive)
GI50 (NCI-H226): 1.51 µM (inactive)
GI50 (NCI-H522): 3.23 µM (inactive)
GI50 (OVCAR-5): 31.6 µM (inactive)
GI50 (RXF 393): 6.04 µM (inactive)
GI50 (SF-539): 5.93 µM (inactive)
GI50 (SK-MEL-28): 5.47 µM (inactive)
GI50 (SK-MEL-5): 1.62 µM (inactive)

c1ccc(C2N3CCCCC3[C@@H]3c4[nH]c5ccccc5c4CCN23)cc1 (some centres undefined)
GI50 (786-0): > 100 µM (inactive)
GI50 (A498): 27 µM (inactive)
GI50 (ACHN): > 100 µM (inactive)
GI50 (CAKI-1): > 100 µM (inactive)
GI50 (CCRF-CEM): 28.6 µM (inactive)
GI50 (HCC 2998): 98.9 µM (inactive)
GI50 (HCT-15): > 100 µM
GI50 (HL-60): 22.1 µM (inactive)
GI50 (HT-29): 17.5 µM (inactive)
GI50 (K562): 41.4 µM (inactive)
GI50 (Malme-3M): 27 µM (inactive)
GI50 (OVCAR-5): > 100 µM (inactive)
GI50 (RXF 393): 47.3 µM (inactive)
GI50 (SF-539): > 100 µM (inactive)
GI50 (SK-MEL-28): 28 µM (inactive)
GI50 (SK-MEL-5): 67.3 µM (inactive)
GI50 (SNB-75): 57.9 µM (inactive)

CC1=C2c3ccccc3N(C(=O)/C=C/C(=O)O)[C@H]2[C@H]2C(=O)OC(=O)[C@H]2C1
GI50 (A498): > 10 µM (inactive)
GI50 (ACHN): > 10 µM (inactive)
GI50 (CAKI-1): > 10 µM (inactive)
GI50 (CCRF-CEM): > 10 µM (inactive)
GI50 (HCC 2998): > 10 µM (inactive)
GI50 (HCT-15): > 10 µM
GI50 (HL-60): > 10 µM (inactive)
GI50 (HT-29): > 10 µM (inactive)
GI50 (Malme-3M): > 10 µM (inactive)
GI50 (NCI-H226): > 10 µM (inactive)
GI50 (NCI-H522): > 10 µM (inactive)
GI50 (OVCAR-5): > 10 µM (inactive)
GI50 (RXF 393): > 10 µM (inactive)
GI50 (SF-539): > 10 µM (inactive)
GI50 (SK-MEL-28): > 10 µM (inactive)
GI50 (SK-MEL-5): > 10 µM (inactive)
GI50 (SNB-75): > 10 µM (inactive)
